Experimental data reported in patent EP1027888B1, “Osmotic system for delivery of solid amorphous dispersions of drugs” (Pfizer Products Inc., priority 1999, dated 2000).
Converted amounts (≈) assume the structure as drawn. Values belong to the compound of their own block, whether it stands above or below them.

Assays:
[1] = dissolution in MFD solution (Example 8); type: physicochemical; conditions: 40 ml MFD solution
Experimental: For a comparative dissolution study, Control H, consisting of 111.4 mg of the crystalline drug, was used. The dissolution of drug was studied by placing the bilayer tablet and Control H each in 40 ml of MFD solution.

physchem = conditions: water
[2] = dissolution in phosphate buffered saline (PBS) solution (Example 3); type: physicochemical; conditions: 35 ml PBS solution
Experimental: For a comparative dissolution study, Control E, consisting of 35 mg of crystalline Drug 2 was prepared. The dissolution of drug was studied by placing two of the trilayer tablets and Control E each in 35 ml of a phosphate buffered saline (PBS) solution composed of 6 mM KH2PO4, 5 mM NaOH, 60 mM KC1 and 30 mM NaCl. The data for the trilayer tablet is the average of the values for the two tablets tested.

[3] = dissolution in phosphate-buffered solution pH 7.2 (Example 7); type: physicochemical; conditions: 50 ml phosphate-buffered solution pH 7.2
Experimental: For a comparative dissolution study, Control G, consisting of 100 mg of crystalline Drug 2 was prepared. The dissolution of drug was studied by placing one each of the bi-layer tablet and Control G preparation containing an equal amount of Drug 2 in 50 ml of the phosphate-buffered solution of Example 3 (pH 7.2, osmotic pressure 5.3 atm) to simulate an intestinal environment of use.

[4] = dissolution in MFD solution (Example 6); type: physicochemical; conditions: 50 ml MFD solution
Experimental: A Model Fasted Duodenum (MFD) solution was prepared to mimic the chemical environment of the small intestine, the solution comprising a phosphate-buffered saline solution containing 14.7 mM sodium taurocholic acid and 2.8 mM of 1-palmitoyl-2-oleyl-sn-glycero-3-phosphocholine with a pH of 6.5.
The data for the tri-layer tablet is the average of the values for the two tablets tested.

Compound: CN[C@H]1CC[C@@H](c2ccc(Cl)c(Cl)c2)c2ccccc21 [sertraline]
MDC [1]: 401 µg/mL | [Drug] ([1]; time 0 hr): 0 µg/mL | [Drug] ([1]; time 0.2 hr): 278 µg/mL | [Drug] ([1]; time 0.3 hr): 401 µg/mL | [Drug] ([1]; time 0.7 hr): 341 µg/mL | [Drug] ([1]; time 1.5 hr): 217 µg/mL | [Drug] ([1]; time 2 hr): 188 µg/mL | [Drug] ([1]; time 3 hr): 168 µg/mL | [Drug] ([1]; time 4 hr): 152 µg/mL | [Drug] ([1]; time 6 hr): 160 µg/mL | [Drug] ([1]; time 10 hr): 137 µg/mL | [Drug] ([1]; time 14 hr): 135 µg/mL | [Drug] ([1]; time 24 hr): 191 µg/mL | AUC ([1]; up to 0 hr): 0 µg·min/mL | AUC ([1]; up to 0.2 hr): 830 µg·min/mL | AUC ([1]; up to 0.3 hr): 4,230 min·µg/mL | AUC ([1]; up to 0.7 hr): 11,650 min·µg/mL | AUC ([1]; up to 1.5 hr): 25,610 min·µg/mL | AUC ([1]; up to 2 hr): 31,700 min·µg/mL | AUC ([1]; up to 3 hr): 42,400 min·µg/mL | AUC ([1]; up to 4 hr): 52,000 min·µg/mL | AUC ([1]; up to 6 hr): 70,640 min·µg/mL | AUC ([1]; up to 10 hr): 106,200 min·µg/mL | AUC ([1]; up to 14 hr): 122,500 min·µg/mL

solubility (physchem): 80 µg/mL (≈ 175 µM) | MDC [2]: 171 µg/mL | [Drug] ([2]; time 0.3 hr): 99 µg/mL | [Drug] ([2]; time 1.5 hr): 148 µg/mL | [Drug] ([2]; time 2.0 hr): 165 µg/mL | [Drug] ([2]; time 3.0 hr): 137 µg/mL | [Drug] ([2]; time 4.0 hr): 142 µg/mL | [Drug] ([2]; time 12.0 hr): 157 µg/mL | [Drug] ([2]; time 20.0 hr): 171 µg/mL | MDC [3]: 77 µg/mL | [Drug] ([3]; time 0 hr): 0 µg/mL | [Drug] ([3]; time 1 hr): 59 µg/mL | [Drug] ([3]; time 2 hr): 72 µg/mL | [Drug] ([3]; time 4 hr): 72 µg/mL | [Drug] ([3]; time 8 hr): 77 µg/mL | [Drug] ([3]; time 12 hr): 71 µg/mL | [Drug] ([3]; time 18 hr): 71 µg/mL | [Drug] ([3]; time 24 hr): 75 µg/mL
Compound: O=C(N[C@@H](Cc1ccccc1)[C@@H](O)C(=O)N1C[C@@H](O)[C@@H](O)C1)c1cc2cc(Cl)ccc2[nH]1 [Drug 2]

MDC [4]: 16 µg/mL | [Drug] ([4]; time 0 hr): 0 µg/mL | [Drug] ([4]; time 2 hr): 13 µg/mL | [Drug] ([4]; time 4 hr): 16 µg/mL | [Drug] ([4]; time 8 hr): 13 µg/mL | [Drug] ([4]; time 12 hr): 15 µg/mL | [Drug] ([4]; time 20 hr): 12 µg/mL | [Drug] ([4]; time 24 hr): 11 µg/mL
Compound: [R-(R*,S*)]-5-chloro-N-[2-hydroxy-3-[methoxymethylamino)-3-1-(phenylmethyl)propyl]propyl]-1H-indole-2-carboxamide [Drug 1]
